Assay results reported in patent US8846704B2, “Thiopyrimidine-based compounds and uses thereof” (YM Biosciences Austraila Pty Ltd, priority 2007, dated 2014).

Tests used:
Format in all cases: cell-based
[1] = target: T1, BaF3 TELJAK3 cells (Homo sapiens, UniProt P52333); test: Cellular screening, BaF3 TEL:JAK3 cells, Alamar Blue; conditions: 40 hr, read-out: BafT_J3 IC50_nM
T1 construct: fused on or other part: TEL (ETV6) N-terminal part, coding nucleotides 1-487, serves as the oligomerising partner; It is fused through a Sal I site to the JAK3 kinase domain and expressed from pTRE2 in BaF3 cells bearing pTET-off; P41212 (Transcription factor ETV6)
T1 sequence (P52333 1-1124): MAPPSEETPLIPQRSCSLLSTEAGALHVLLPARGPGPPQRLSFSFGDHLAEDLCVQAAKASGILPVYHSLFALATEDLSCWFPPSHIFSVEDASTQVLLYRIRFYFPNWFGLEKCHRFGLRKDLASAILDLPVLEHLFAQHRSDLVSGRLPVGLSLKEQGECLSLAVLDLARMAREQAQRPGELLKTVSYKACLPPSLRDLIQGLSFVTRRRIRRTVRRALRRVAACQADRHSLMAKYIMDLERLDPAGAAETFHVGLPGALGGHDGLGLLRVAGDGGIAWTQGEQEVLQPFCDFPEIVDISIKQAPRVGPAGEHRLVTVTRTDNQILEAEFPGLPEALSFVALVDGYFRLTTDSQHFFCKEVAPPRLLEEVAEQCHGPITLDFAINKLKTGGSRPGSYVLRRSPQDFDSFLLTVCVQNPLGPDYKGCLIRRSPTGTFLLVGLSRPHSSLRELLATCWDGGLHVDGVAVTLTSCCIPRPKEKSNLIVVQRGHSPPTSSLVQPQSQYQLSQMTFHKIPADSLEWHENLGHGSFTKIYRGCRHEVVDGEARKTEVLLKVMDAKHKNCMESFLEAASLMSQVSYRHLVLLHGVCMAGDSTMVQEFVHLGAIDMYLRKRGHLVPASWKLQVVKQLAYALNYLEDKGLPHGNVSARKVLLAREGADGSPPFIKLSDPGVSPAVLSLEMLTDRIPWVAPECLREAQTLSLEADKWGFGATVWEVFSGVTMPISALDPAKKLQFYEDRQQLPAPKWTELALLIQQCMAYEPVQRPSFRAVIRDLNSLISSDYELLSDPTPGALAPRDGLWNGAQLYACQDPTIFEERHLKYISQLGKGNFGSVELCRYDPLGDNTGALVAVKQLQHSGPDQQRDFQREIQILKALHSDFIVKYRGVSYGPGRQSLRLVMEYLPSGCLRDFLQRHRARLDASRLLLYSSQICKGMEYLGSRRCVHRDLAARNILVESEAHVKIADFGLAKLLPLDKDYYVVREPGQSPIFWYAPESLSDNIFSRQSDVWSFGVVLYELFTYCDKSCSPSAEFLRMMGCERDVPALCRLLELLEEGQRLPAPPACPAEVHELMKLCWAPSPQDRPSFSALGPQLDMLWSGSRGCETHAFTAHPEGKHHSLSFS
In short: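 BaF3 cells carrying pTET-off and a TEL–JAK3 kinase-domain fusion, selected for growth-factor independence, were grown in DMEM with 10% Tet-approved FBS without WEHI 3B medium. Cells were exposed to compounds for 40 h at 37 °C, 5% CO2. Viability was read with Alamar Blue (4–6 h) at 544 nm.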

[2] = target: T2, BaF3 TELJAK2 cells (BafT_J2) (Homo sapiens, UniProt O60674); test: Cellular screening, BaF3 TEL:JAK2 cells, Alamar Blue; conditions: 40 hr, read-out: BafT_J2 IC50_nM
T2 construct: fused on or other part: TEL (ETV6) N-terminal part, coding nucleotides 1-487, serves as the oligomerising partner; It is fused through a Sal I site to the JAK2 kinase domain and expressed from pTRE2 in BaF3 cells bearing pTET-off; P41212 (Transcription factor ETV6)
T2 sequence (O60674 whole entry, change not shown, the tested form may be a part): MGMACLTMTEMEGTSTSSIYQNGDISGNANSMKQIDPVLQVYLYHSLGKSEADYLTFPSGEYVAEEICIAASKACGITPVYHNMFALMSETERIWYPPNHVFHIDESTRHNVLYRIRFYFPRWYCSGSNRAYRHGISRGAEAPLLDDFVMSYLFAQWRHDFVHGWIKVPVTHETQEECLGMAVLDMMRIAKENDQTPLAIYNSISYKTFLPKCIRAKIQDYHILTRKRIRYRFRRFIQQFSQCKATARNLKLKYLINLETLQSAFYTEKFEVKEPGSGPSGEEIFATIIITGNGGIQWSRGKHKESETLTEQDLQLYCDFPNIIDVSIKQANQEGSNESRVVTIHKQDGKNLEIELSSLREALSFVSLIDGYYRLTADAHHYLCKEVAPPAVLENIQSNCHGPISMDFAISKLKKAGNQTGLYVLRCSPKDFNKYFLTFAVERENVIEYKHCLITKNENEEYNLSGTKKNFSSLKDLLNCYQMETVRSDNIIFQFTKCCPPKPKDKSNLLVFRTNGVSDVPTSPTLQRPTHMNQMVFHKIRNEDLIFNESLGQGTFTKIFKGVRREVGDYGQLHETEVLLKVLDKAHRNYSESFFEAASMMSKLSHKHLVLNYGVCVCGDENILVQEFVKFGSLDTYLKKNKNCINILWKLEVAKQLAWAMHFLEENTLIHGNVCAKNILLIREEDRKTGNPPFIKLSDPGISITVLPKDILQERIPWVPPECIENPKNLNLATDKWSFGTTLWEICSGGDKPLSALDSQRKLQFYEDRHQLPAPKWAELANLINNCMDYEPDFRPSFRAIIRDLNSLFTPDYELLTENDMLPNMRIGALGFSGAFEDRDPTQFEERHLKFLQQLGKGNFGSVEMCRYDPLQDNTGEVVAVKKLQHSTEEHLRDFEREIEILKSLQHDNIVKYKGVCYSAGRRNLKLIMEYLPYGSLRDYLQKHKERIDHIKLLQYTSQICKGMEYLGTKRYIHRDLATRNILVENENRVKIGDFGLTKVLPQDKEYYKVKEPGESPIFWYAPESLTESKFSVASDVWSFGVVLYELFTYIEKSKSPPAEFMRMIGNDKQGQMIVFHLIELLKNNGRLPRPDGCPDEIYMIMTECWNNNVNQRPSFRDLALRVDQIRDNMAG
In short: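 Tet-off BaF3 cells carrying a TEL (nt 1-487)–JAK2 kinase-domain fusion, grown factor-independently in DMEM with 10% Tet-approved FBS without WEHI 3B medium. Compounds were diluted to 20 μM in screening plates, and cells (50,000–200,000 cell/mL at 1.1×) were incubated 40 hr at 37 °C, 5% CO2. Alamar Blue was then added for 4-6 hours; read at 544 nm.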

[3] = system: CTLL2; test: Cellular screening, CTLL2 cells, Alamar Blue; conditions: Mus musculus, CTLL-2, read-out: CTLL2 IC50_nM
In short: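 CTLL2 cells in late log phase incubated with compound for 40 hr at 37° C, 5% CO2. Viability then read at 544 nm after a further 4-6 hours with Alamar Blue.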

| Structure (SMILES) | GI50 [1] [µM] | GI50 [2] [µM] | IC50 [3] [µM] |
| --- | --- | --- | --- |
| C=CC(=O)Nc1ccc(Sc2nc(Nc3cccc(OCCCO)c3)ncc2C)cc1 [Compound 301, N-(4-(2-(3-(3-hydroxypropoxy)phenylao)-5-methylpyrimidin-4-ylthio)phenyl)acrylamide] | < 1 | < 20 | < 1 |
| C=CC(=O)N(C)c1ccc(Sc2ccnc(Nc3ccc(N4CCOCC4)cc3)n2)cc1 [Compound 91, N-methyl-N-(4-(2-(4-morpholinophenylao)pyrimidin-4-ylthio)phenyl)acrylamide] | < 1 | < 20 | < 1 |
| C=CC(=O)Nc1ccc(Sc2ccnc(Nc3ccc(S(N)(=O)=O)cc3)n2)cc1 [Compound 352, N-(4-(2-(4-sulfamoylphenylao)pyrimidin-4-ylthio)phenyl)acrylamide] | < 20 | < 20 | < 20 |
| C=CC(=O)Nc1ccc(Sc2ccnc(Nc3ccc(Cl)cc3)n2)cc1 [Compound 353, N-(4-(2-(4-chlorophenylao)pyrimidin-4-ylthio)phenyl)acrylamide] | < 5 | < 20 | < 5 |
| C=CC(=O)Nc1ccc(Sc2nc(Nc3ccc(N4CCOCC4)cc3)ncc2I)cc1 [Compound 313, N-(4-(5-iodo-2-(4-morpholinophenylao)pyrimidin-4-ylthio)phenyl)acrylamide] | < 1 | > 20 | < 5 |
| C=CC(=O)Nc1ccc(Sc2nc(Nc3cccc(OC(F)(F)F)c3)ncc2C)cc1 [Compound 289, N-(4-(5-methyl-2-(3-(trifluoromethoxy)phenylao)pyrimidin-4-ylthio)phenyl)acrylamide] | < 5 | < 20 | < 1 |
| C=CC(=O)Nc1ccc(Sc2ccnc(Nc3ccc(S(=O)(=O)NCCC(C)C)cc3)n2)cc1 [Compound 371, N-(4-(2-(4-(N-isopentylsulfamoyl)phenylao)pyrimidin-4-ylthio)phenyl)acrylamide] | < 5 | < 20 | < 5 |
| C=CC(=O)Nc1ccc(Sc2ccnc(Nc3cccc(C#N)c3)n2)cc1 [Compound 118, N-(4-(2-(3-cyanophenylao)pyrimidin-4-ylthio)phenyl)acrylamide] | < 5 | < 5 | > 20 |
| N#Cc1nccc(Sc2ccc(Sc3ccnc(Nc4ccc(N5CCOCC5)cc4)n3)cc2)n1 [Compound 154, 4-(4-(2-(4-morpholinophenylao)pyrimidin-4-ylthio)phenylthio)pyrimidine-2-carbonitrile] | < 5 | < 5 | < 5 |
| CC#CC(=O)Nc1ccc(Sc2nc(Nc3ccc(N4CCOCC4)cc3)ncc2C)cc1 [Compound 125, N-(4-(5-methyl-2-(4-morpholinophenylao)pyrimidin-4-ylthio)phenyl)but-2-ynamide] | < 5 | < 20 | < 5 |
| C=CC(=O)Nc1ccc(Sc2nc(Nc3ccc(O)cc3)ncc2C)cc1 [Compound 282, N-(4-(2-(4-hydroxyphenylao)-5-methylpyrimidin-4-ylthio)phenyl)acrylamide] | < 1 | < 20 | < 1 |
| C=CC(=O)Nc1ccc(Sc2ccnc(Nc3ccc(S(=O)(=O)N4CCOCC4)c(OC)c3)n2)cc1 [Compound 373, N-(4-(2-(3-methoxy-4-(morpholinosulfonyl)phenylao)pyrimidin-4-ylthio)phenyl)acrylamide] | < 5 | < 5 | < 5 |
| C=CC(=O)Nc1ccc(Sc2ccnc(Nc3cccc([N+](=O)[O-])c3)n2)cc1 [Compound 361, N-(4-(2-(3-nitrophenylao)pyrimidin-4-ylthio)phenyl)acrylamide] | < 5 | < 5 | > 20 |
| C=CC(=O)Nc1ccc(Sc2ccnc(Nc3ccc(S(=O)(=O)N4CCN(C)CC4)cc3)n2)cc1 [Compound 370, N-(4-(2-(4-(4-methylpiperazin-1-ylsulfonyl)phenylao)pyrimidin-4-ylthio)phenyl)acrylamide] | < 5 | < 20 | < 5 |
| CCOC(=O)c1nccn1Cc1ccc(Sc2ccnc(Nc3ccc(N4CCOCC4)cc3)n2)cc1 [Compound 148, ethyl 1-(4-(2-(4-morpholinophenylao)pyrimidin-4-ylthio)benzyl)-1H-imidazole-2-carboxylate] | < 20 | < 20 | < 20 |
| C=CC(=O)Nc1ccc(Sc2nc(Nc3ccc(N4CCOCC4)cc3)ncc2C)cc1 [Compound 124, N-(4-(5-methyl-2-(4-morpholinophenylao)pyrimidin-4-ylthio)phenyl)acrylamide] | < 1 | > 20 | < 1 |
| Cc1cnc(Nc2ccc(N3CCOCC3)cc2)nc1Sc1ccc(NC(=O)/C=C/C(=O)O)cc1 [Compound 387, (E)-4-(4-(5-methyl-2-(4-morpholinophenylao)pyrimidin-4-ylthio)phenylao)-4-oxobut-2-enoic acid] | > 20 | > 20 | > 20 |
| C=CC(=O)Nc1ccc(Sc2nc(Nc3ccc(OC)c(O)c3)ncc2C)cc1 [Compound 283, N-(4-(2-(3-hydroxy-4-methoxyphenylao)-5-methylpyrimidin-4-ylthio)phenyl)acrylamide] | < 1 | < 20 | < 1 |
| C=CC(=O)Nc1ccc(Sc2nc(Nc3ccc(N4CCC(C(=O)OCC)CC4)cc3)ncc2C)cc1 [Compound 292, ethyl 1-(4-(4-(4-acrylamidophenylthio)-5-methylpyrimidin-2-ylao)phenyl)piperidine-4-carboxylate] | < 5 | > 20 | < 5 |
| C=CC(=O)Nc1cccc(Nc2nccc(Sc3cccc(OC)c3)n2)c1 [Compound 31, N-(3-(4-(3-methoxyphenylthio)pyrimidin-2-ylao)phenyl)acrylamide] | < 1 | < 20 | < 1 |
| C=CC(=O)Nc1ccc(Sc2ccnc(Nc3cccc(S(=O)(=O)N4CCOCC4)c3)n2)cc1 [Compound 372, N-(4-(2-(3-(morpholinosulfonyl)phenylao)pyrimidin-4-ylthio)phenyl)acrylamide] | < 5 | < 5 | < 5 |
| CNC(=O)CCC(=O)Nc1ccc(Sc2nc(Nc3ccc(N4CCOCC4)cc3)ncc2C)cc1 [Compound 386, N1-methyl-N4-(4-(5-methyl-2-(4-morpholinophenylao)pyrimidin-4-ylthio)phenyl)succinamide] | > 20 | > 20 | > 20 |
| Cc1cnc(Nc2ccc(N3CCOCC3)cc2)nc1Sc1ccc(NC(=O)/C=C/Cl)cc1 [Compound 343, (E)-3-chloro-N-(4-(5-methyl-2-(4-morpholinophenylao)pyrimidin-4-ylthio)phenyl)acrylamide] | < 5 | < 20 | < 5 |
| C=C(CN1CCOCC1)C(=O)Nc1cccc(Sc2ccnc(Nc3ccc(N4CCOCC4)cc3)n2)c1 [Compound 328, 2-(morpholinomethyl)-N-(3-(2-(4-morpholinophenylao)pyrimidin-4-ylthio)phenyl)acrylamide] | < 5 | < 1 | < 5 |
